Source: paper PMC11089204 (Frontiers in Pharmacology, 2024)
Where “and” joins values, the source holds several entries; their conditions need not be identical. Equal entries are not always repeated. Where two headings read alike, the source gives them in different places.

Tests used:
[1] = target: T1, MAO-A in human liver microsomes (HLM) (Homo sapiens, UniProt P21397); assay: Monoamine oxidase A inhibition in human liver microsomes; type: in vitro ADME; conditions: for biotransformation on incubation with HLM: 1,000 nM 4-HIAA or 4-HTP incubated with HLM; for metabolite concentration formed from psilocin (mean ± SD) / metabolite formation from psilocin in presence of clorgyline: 1,000 nM psilocin; for metabolite concentration formed from psilocin (mean ± SD): HLM alone, t = 240 min; for metabolite formation from psilocin in presence of clorgyline: HLM with MAO-A inhibitor clorgyline
T1 construct: tissue Corning Life Sciences B.V; host or cells: pooled human liver microsomes
T1 sequence (P21397 1-527): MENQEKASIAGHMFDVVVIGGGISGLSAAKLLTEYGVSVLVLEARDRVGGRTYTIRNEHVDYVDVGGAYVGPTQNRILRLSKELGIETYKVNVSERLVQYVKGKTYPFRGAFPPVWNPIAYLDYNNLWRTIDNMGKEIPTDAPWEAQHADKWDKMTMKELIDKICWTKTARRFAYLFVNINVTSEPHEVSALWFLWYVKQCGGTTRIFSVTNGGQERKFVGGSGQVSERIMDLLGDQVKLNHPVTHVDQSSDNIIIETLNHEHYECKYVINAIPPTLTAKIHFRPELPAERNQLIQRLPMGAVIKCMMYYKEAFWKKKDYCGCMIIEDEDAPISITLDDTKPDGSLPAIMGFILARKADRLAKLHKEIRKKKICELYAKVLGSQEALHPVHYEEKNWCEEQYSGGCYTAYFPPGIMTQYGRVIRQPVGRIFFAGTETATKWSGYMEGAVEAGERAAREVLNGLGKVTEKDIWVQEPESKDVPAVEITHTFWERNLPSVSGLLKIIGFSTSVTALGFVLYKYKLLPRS

[2] = Pharmacokinetics and metabolites in mouse plasma after oral psilocybin; type: in vivo, C57BL/6J mice; conditions: for half-life / Cmax / Tmax: male, C57BL/6J, po, n = 5; for half-life: mouse, plasma, 3 mg/kg, read-out: elimination half-life t1/2 (mean ± SD) (converted); for Cmax: read-out: Cmax (mean ± SD); for Tmax: read-out: tmax (mean ± SD)
Description: C57BL/6J adult male mice (Janvier, Le Genest-Saint-Isle, France) were maintained in littermate pairs in standard cages (containing sawdust, a sleeping chamber, tissue paper, and a wood stick) with water and pellet food available ad libitium. The colony room was on a reversed light-dark cycle (dark phase 07:00 to 19:00) with temperature at 22°C and humidity at 50–60%. A total of 10 mice were dosed orally with either 3 mg/kg bodyweight psilocybin (n = 5) or saline solution (n = 5). Dosing and blood sampling were conducted between 09:00 and 13:00. The mouse was placed in a plastic restrainer with the tail protruding through a hole in the end of the tube. The tail was immersed in warm water for 1 min for vasodilation and then a small incision was made on the lateral tail surface near the distal tip. 50 μL of blood was massaged gently into an EDTA-coated capillary blood tube (Mircovette, Sarstedt, Nümbrecht, Germany). The first (baseline) blood sample was collected directly before compound administration via oral gavage and the mouse was then returned to the home cage. Further blood samples were collected at 15, 30, 60, and 120 min post-treatment. Each sample was drawn from the same incision site, with mice maintained in the home cage in the intervening periods. The blood samples were stored on ice and centrifuged for 10 min at 780 × g and 4°C. Subsequently, the plasma was transferred into cryotubes (Protein LoBind, Eppendorf) and stored at −80 °C until analysis. All procedures were conducted under a permit for animal experimentation (ZH038/2022) issued by the Veterinary Office Zurich in accordance with the Animal Protection Act (1978) of Switzerland. The use of psilocybin was authorized by the Federal Office of Public Health (FOPH).
Pharmacokinetic parameters were calculated using Phoenix WinNonlin software (version 8.1.0, Certara, Princeton, USA). The elimination half-life (t1/2, min) was assessed as t1/2 = ln(2)/λ, while the elimination constant was calculated by linear regression in the terminal elimination phase. The maximal plasma concentration (Cmax, ng/mL) and the time to reach this concentration (tmax, h) were direct read-outs of the graphical plots.

[3] = target: T2, recombinant MAO-A (Homo sapiens, UniProt P21397); assay: Incubation with recombinant MAO-A enzymes; type: in vitro ADME; conditions: for metabolite concentration formed from psilocin: 300 min; for metabolite formation from psilocin in presence of clorgyline: rec. MAO-A with clorgyline
T2 construct: purchased Corning Life Sciences B.V
T2 sequence (P21397 1-527): T1 sequence (P21397 1-527)
Description: Corning UltraPool human liver microsomes (HLM) 150 (20 mg/mL), human intestinal microsomes (HIM) pool (10 mg/mL) as well as recombinant human CYP enzymes (with P450 oxidoreductase, OR) including CYP1A2+OR (0.5 nmol), CYP2B6+OR (0.5 nmol), CYP2C8+OR (1.0 nmol), CYP2C9*1+OR (1 nmol), CYP2C19+OR (0.5 nmol), CYP2D6*1+OR (0.5 nmol), CYP2E1+OR + cytochrome b5 (1 nmol), CYP3A4+OR + cytochrome b5 (0.5 nmol), MAO-A (5 mg/mL), MAO-B (5 mg/mL), and UGT1A10 (5 mg/mL) were purchased from Corning Life Sciences B.V (Amsterdam, Netherlands). All microsomes and recombinant enzyme solutions were aliquoted and stored at −80 °C until further use.
The MAO inhibition assay was based on the assay described in section 2.5.1 and performed identically if not otherwise stated.

[4] = target: T3, human 5-HT2C receptor (Homo sapiens, UniProt P28335); assay: biochemical; conditions: HEK 293 membranes, [3H]mesulergine; read-out: h5-HT2C Receptor binding Ki ± SD
T3 construct: expressed in transfected cells; host or cells: HEK 293 membrane preparations
T3 sequence (P28335 33-458): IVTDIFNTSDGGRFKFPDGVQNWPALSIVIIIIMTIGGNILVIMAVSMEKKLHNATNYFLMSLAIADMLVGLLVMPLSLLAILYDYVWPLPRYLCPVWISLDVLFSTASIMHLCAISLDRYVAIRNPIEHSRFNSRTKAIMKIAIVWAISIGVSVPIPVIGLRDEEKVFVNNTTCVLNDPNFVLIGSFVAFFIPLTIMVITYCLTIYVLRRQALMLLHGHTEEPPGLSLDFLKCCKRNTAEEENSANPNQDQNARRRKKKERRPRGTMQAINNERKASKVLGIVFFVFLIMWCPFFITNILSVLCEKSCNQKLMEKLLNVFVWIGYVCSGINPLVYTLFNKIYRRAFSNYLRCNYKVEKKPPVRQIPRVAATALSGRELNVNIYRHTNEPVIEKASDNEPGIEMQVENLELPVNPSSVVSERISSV

[5] = target: T4, human 5-HT1A receptor (Homo sapiens, UniProt P08908); assay: Radioligand receptor binding, 5-HT1A; parameters: expressed in transfected cells; host or cells: HEK 293 membrane preparations; conditions: HEK 293 membranes, [3H]8-OH-DPAT
T4 sequence (P08908 1-422): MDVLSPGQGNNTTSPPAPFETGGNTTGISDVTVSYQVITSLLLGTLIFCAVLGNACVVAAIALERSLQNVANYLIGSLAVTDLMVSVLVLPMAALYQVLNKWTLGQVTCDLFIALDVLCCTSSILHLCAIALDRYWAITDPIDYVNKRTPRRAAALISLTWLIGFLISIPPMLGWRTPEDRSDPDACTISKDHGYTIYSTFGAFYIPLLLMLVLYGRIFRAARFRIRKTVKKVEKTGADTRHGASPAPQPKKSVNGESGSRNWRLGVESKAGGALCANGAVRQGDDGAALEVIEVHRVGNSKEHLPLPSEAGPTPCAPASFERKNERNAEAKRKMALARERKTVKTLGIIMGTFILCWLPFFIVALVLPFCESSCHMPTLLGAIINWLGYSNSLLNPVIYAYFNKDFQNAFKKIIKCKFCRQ

[6] = cited from earlier work; for fraction of administered psilocybin dose excreted in urine: oral psilocybin, within 24 h (time not stated for 4-HIAA)
[7] = mouse plasma, 3 mg/kg psilocybin p.o.
[8] = read-out: h5-HT1A Receptor binding Ki ± SD
[9] = humans, ref Holze et al., 2022a
[10] = humans, single oral dose of 25 mg psilocybin, ref Kolaczynska et al., 2021, Holze et al., 2022a

| SMILES | biotransformation on incubation with HLM [1] | metabolite concentration formed from psilocin (mean ± SD) [1] [nM] | metabolite formation from psilocin in presence of clorgyline [1] | half-life [2, 7] [min] | Cmax [2, 7] [ng/mL] | Tmax [2, 7] [min] | metabolite concentration formed from psilocin ([3]; 1,000 nM psilocin, rec. MAO-A) [nM] | metabolite formation from psilocin in presence of clorgyline [3] | Ki [4] [µM] | Ki [5, 8] [µM] | fraction of administered psilocybin dose excreted in urine [6, 9] | further results |
| --- | --- | --- | --- | --- | --- | --- | --- | --- | --- | --- | --- | --- |
| O=C(O)Cc1c[nH]c2cccc(O)c12 [4-HIAA, 4-hydroxyindole-3-acetic acid] | did not lead to any biotransformation | 8.5 ± 3.8 | complete inhibition | 45 ± 6.6 | 84.9 ± 17.7 | 18 ± 6.6 | 20.1 ± 2.8 | inhibited | > 10 | > 10 | Around 33% | concentrations relative to psilocin (lower) ([2]; mouse plasma): 2 fold; elimination half-life in mice relative to humans (shorter) ([2]; mouse versus human): more than 2 fold; maximal concentrations relative to psilocin (higher) ([6]; humans, ref Holze et al., 2022a, Becker et al., 2022): 4–5 fold |
| OCCc1c[nH]c2cccc(O)c12 [4-HTP, 4-hydroxytryptophol] | did not lead to any biotransformation | 25.3 ± 6.0 | complete inhibition | – | – | – | 16.9 ± 2.9 | inhibited | > 10 | > 10 | – | detection in mouse plasma ([2]; 3 mg/kg psilocybin p.o.): could not be observed |
| CN(C)CCc1c[nH]c2cccc(O)c12 [psilocin, 4-hydroxy-N,N-dimethyltryptamine] | – | – | – | 54.6 ± 6.6 | 198 ± 28 | 18 ± 6.6 | – | – | – | – | 1.5% | change of psilocin concentration ([1]; 1,000 nM psilocin with HLM): did not visibly decrease; change of psilocin concentration ([3]; 1,000 nM psilocin, rec. MAO-A): did not visibly decrease; Ki ([5]; h5-HT1A Receptor binding Ki ± SD): < 0.136 µM and 0.128 µM; time of peak plasma concentration ([6]; after oral administration, ref Griffiths et al., 2016, Johnson et al., 2017, Holze et al., 2022a): around 2 h; plasma elimination half-life in humans ([6]; humans, no reference given): approximately 2 h; elimination half-life (t1/2) [6, 10]: 120 to 180 min; psilocin plasma concentrations [6, 10]: 15 to 20 ng/mL |
